Patent US20160199369A1, “Extruded Immediate Release Abuse Deterrent Pill” (priority 2013, published 2016)

How the values were obtained:
[1] = General solubility of exemplary components; format: physicochemical; settings: 200 proof ethanol, filtered through 0.22 micrometer PTFE filter
Excerpt: The following table lists the relative solubility of exemplary components of a formulation. A number of different dyes are listed along with their solubility information taken from the various literature sources and tested experimentally (200 proof ethanol and filtered through a 0.22 micrometer PTFE filter).

[2] = relative solubility, yes/no; cited from earlier work

Row | Structure (SMILES) | Alcohol Solubility (tested) [1] | Alcohol Solubility (Literature) [2] | Water Solubility [2]
1 | COc1cc(S(=O)(=O)[O-])c(C)cc1N=Nc1c(O)ccc2cc(S(=O)(=O)[O-])ccc12.[Na+].[Na+] [FD&C Red #40] | Yes | Yes | Yes
2 | O=C1/C(=C2\Nc3ccc(S(=O)(=O)[O-])cc3C2=O)Nc2ccc(S(=O)(=O)[O-])cc21.[Na+].[Na+] [FD&C Blue #2] | Yes | Yes | Yes
3 | O=C([O-])C1=NN(c2ccc(S(=O)(=O)[O-])cc2)C(=O)C1N=Nc1ccc(S(=O)(=O)[O-])cc1.[Na+].[Na+].[Na+] (stereo not shown) [FD&C Yellow #5] | Yes | Yes | Yes
4 | COc1ccc2c3c1O[C@H]1C(=O)CC[C@@]4(O)[C@@H](C2)N(C)CC[C@]314.Cl [Oxycodone HCl, reference compound] |  | Yes | Yes
5 | CCN(Cc1cccc(S(=O)(=O)[O-])c1)c1ccc(C(=C2C=CC(=[N+](CC)Cc3cccc(S(=O)(=O)[O-])c3)C=C2)c2ccccc2S(=O)(=O)[O-])cc1.[Na+].[Na+] [FD&C Blue #1] |  | Yes | Yes
